Values of other authors, collected in US20260125514A1, “CROSSLINKED POLYMERS AND THEIR USES” (UNIVERSITÉ CÔTE D'AZUR, priority 2022, published 2026).

Conditions: free, non crosslinked caulerpenyne; Parent-Massin (1996)

For `CC(=O)O/C=C(/C=C/OC(C)=O)[C@H](C/C=C(\C)C#CC=C(C)C)OC(C)=O` [caulerpenyne, Caulerpenyne], the toxicity is listed as “toxicity”.
